Data as given in US11236086B2, “Substituted pyrrolopyridines as inhibitors of activin receptor-like kinase” (BLUEPRINT MEDICINES CORPORATION, priority 2017, dated 2022).
pIC50: −log10 of the molar value.

What was measured:
[1] = target: T1, human ALK2 R206H (Homo sapiens, UniProt Q04771, R206H); assay: Cell-based ALK2-R206H cell activity assay (Smad1-Ser463/Ser465 phosphorylation by AlphaLISA in HEK293-ALK2-R206H cells); conditions: phospho-Smad1 AlphaLISA, read-out: Cell Line (Cell Assay, IC50 class)
T1 construct: expressed in transfected cells; host or cells: HEK293 (ATCC CRL1573), lentivirus transduction, blasticidin selection
T1 sequence (Q04771 21-509 R206H): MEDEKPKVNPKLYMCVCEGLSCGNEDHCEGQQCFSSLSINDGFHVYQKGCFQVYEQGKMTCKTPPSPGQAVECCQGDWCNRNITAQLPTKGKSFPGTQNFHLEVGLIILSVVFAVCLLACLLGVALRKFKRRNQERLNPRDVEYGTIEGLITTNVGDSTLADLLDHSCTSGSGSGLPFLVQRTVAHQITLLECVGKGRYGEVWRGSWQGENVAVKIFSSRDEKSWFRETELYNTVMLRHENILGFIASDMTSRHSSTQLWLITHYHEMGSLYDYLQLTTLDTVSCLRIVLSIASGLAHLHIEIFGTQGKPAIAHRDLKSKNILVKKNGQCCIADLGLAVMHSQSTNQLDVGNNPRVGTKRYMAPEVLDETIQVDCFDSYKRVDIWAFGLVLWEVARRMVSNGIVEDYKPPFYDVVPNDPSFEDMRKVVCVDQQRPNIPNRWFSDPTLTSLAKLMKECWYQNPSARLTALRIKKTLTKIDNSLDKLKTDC
Method in brief: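 HEK293 stable line expressing human ALK2 R206H with C-terminal FLAG, plated overnight in serum-free medium. Cells were treated 2-3 h with compound over 10 3-fold doses, top 10 μM or 1 μM, in duplicate. Phospho-Smad1 Ser463/465 in lysate was read by AlphaLISA; IC50 was normalised to DMSO (0%) and 1 μM LDN193189 (100%).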

[2] = target: T2, ALK2R206H (mutant ALK2, N-terminally tagged with GST) (Homo sapiens, UniProt Q04771, R206H); assay: ALK binding assay (LANTHASCREEN TR-FRET competitive binding, displacement of Kinase Tracer 178); conditions: read-out: Binding Assay (IC50 class)
T2 construct: purchased Carna Bioscience or ThermoFisher 09-148 or PV6232
T2 sequence (Q04771 21-509 R206H): T1 sequence (Q04771 21-509 R206H)
Method in brief: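 GST-tagged ALK2 R206H (2-5 nM) mixed with Eu-anti-GST antibody (4-10 nM), Kinase Tracer 178 (50 nM, near its Kd) and compound titration (1% DMSO) in Kinase Buffer A, 30 min at room temperature. Tracer displacement read as TR-FRET ratio, normalized to controls; IC50 from 4-parameter fit.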

pIC50 [1] | pIC50 [2] | SMILES
6.30 to 7.00 | ≥ 8.00 | Cn1cc(-c2cc3c(N4CCN(C(=O)OC5CC(F)(F)C5(F)F)CC4)ccnc3[nH]2)cn1 (centres unmarked) [Compound 399]
≥ 7.00 | ≥ 8.00 | Cn1cc(-c2cc3c(N4CCN(C(=O)O[C@H]5CC(F)(F)C5(F)F)CC4)ccnc3[nH]2)cn1 [Compound 401]
≥ 7.00 | ≥ 8.00 | O=C(OC1COC1)N1CCN(c2ccnc3[nH]c(-c4cn(C5CCOCC5)cn4)cc23)CC1 [Compound 403]
≥ 7.00 | ≥ 8.00 | O=C(OC1COC1)N1CCN(c2ccnc3[nH]c(-c4cnn(C(F)F)c4)c(Cl)c23)CC1 [Compound 407]
6.30 to 7.00 | ≥ 8.00 | CCNC(=O)c1nc(-c2cc3c(N4CCN(C(=O)OC5COC5)CC4)ccnc3[nH]2)cs1 [Compound 415]
≥ 7.00 | ≥ 8.00 | O=C(OC1COC1)N1CCN(c2ccnc3[nH]c(-c4nc5c(s4)CSCC5)cc23)CC1 [Compound 417]
≥ 7.00 | ≥ 8.00 | O=C(C1CC1)N1CCN(c2ccnc3[nH]c(-c4ccc(OCCN5CCCC5)cc4)cc23)CC1 [Compound 421]
≥ 7.00 | ≥ 8.00 | Cc1nn(C(C)C)cc1-c1cc2c(N3CCN(C(=O)[C@H]4CC[C@H](C#N)CC4)CC3)ccnc2[nH]1 [Compound 422]
≥ 7.00 | ≥ 8.00 | Cc1c(-c2cc3c(N4CCN(C(=O)[C@H]5CC[C@H](C#N)CC5)CC4)ccnc3[nH]2)cnn1C(C)C [Compound 423]
≥ 7.00 | ≥ 8.00 | CCN1CCN(c2ccc(-c3cc4c(N5CCN(C(=O)C6CC6)CC5)ccnc4[nH]3)nc2)CC1 [Compound 424]
6.30 to 7.00 | ≥ 8.00 | Cn1cc(-c2[nH]c3nccc(N4CCN(C(=O)OC5COC5)CC4)c3c2Br)cn1 [Compound 426]
≥ 7.00 | ≥ 8.00 | O=C(OC1COC1)N1CCN(c2ccnc3[nH]c(-c4ccc(C5(O)CCCC5)cc4)cc23)CC1 [Compound 427]
≥ 7.00 | ≥ 8.00 | O=C(OC1COC1)N1CCN(c2ccnc3[nH]c(-c4ccc([C@]5(O)CCOC5)cc4)cc23)CC1 [Compound 429]
≥ 7.00 | ≥ 8.00 | Cc1nc(-c2cc3c(N4CCN(C(=O)O[C@@H]5CC(F)(F)C5(F)F)CC4)ccnc3[nH]2)cn1C [Compound 433]
≥ 7.00 | ≥ 8.00 | N#Cc1c(-c2nc3c(s2)COCC3)[nH]c2nccc(N3CCN(C(=O)OC4COC4)CC3)c12 [Compound 434]
≥ 7.00 | ≥ 8.00 | CCS(=O)(=O)c1ccc(-c2cc3c(N4CCN(C(=O)OC5COC5)CC4)ccnc3[nH]2)cc1 [Compound 436]
≥ 7.00 | ≥ 8.00 | O=C(C1CC1)N1CCN(c2ccnc3[nH]c(-c4ccc(N5CCNC6(COC6)C5)cc4)cc23)CC1 [Compound 437]
≥ 7.00 | ≥ 8.00 | CC(C)N1CCN(c2ccc(-c3cc4c(N5CCN(C(=O)C6CC6)CC5)ccnc4[nH]3)cc2)CC1 [Compound 438]
≥ 7.00 | ≥ 8.00 | CCN1CCN(c2ccc(-c3cc4c(N5CCN(C(=O)C6CCC6)CC5)ccnc4[nH]3)cc2)CC1 [Compound 439]
≥ 7.00 | ≥ 8.00 | N#Cc1c(-c2nc3c(s2)COCC3)[nH]c2nccc(N3CCN(C(=O)OCC(F)F)CC3)c12 [Compound 440]
≥ 7.00 | ≥ 8.00 | O=C(OC1COC1)N1CCN(c2ccnc3[nH]c(-c4ccc(C5(O)CCOCC5)cc4)cc23)CC1 [Compound 445]
≥ 7.00 | ≥ 8.00 | O=C(OC1COC1)N1CCN(c2ccnc3[nH]c(-c4ccc(C5(O)CCOCC5)cn4)cc23)CC1 [Compound 446]
≥ 7.00 | ≥ 8.00 | O=C(OCC(F)F)N1CCN(c2ccnc3[nH]c(-c4nc5c(s4)COCC5)c(Cl)c23)CC1 [Compound 449]
6.30 to 7.00 | ≥ 8.00 | O=C(OC1COC1)N1CCN(c2ccnc3[nH]c(-c4csc(N5CCC(O)CC5)n4)cc23)CC1 [Compound 450]
≥ 7.00 | ≥ 8.00 | O=C(C1CC1)N1CCN(c2ccnc3[nH]c(-c4ccc(C5CCN(C6COC6)CC5)cc4)cc23)CC1 [Compound 451]
≥ 7.00 | ≥ 8.00 | O=C(C1CC1)N1CCN(c2ccnc3[nH]c(-c4ccc(N5CCN(C6COC6)CC5)cc4)cc23)CC1 [Compound 452]
≥ 7.00 | ≥ 8.00 | CCN1CCN(c2ccc(-c3cc4c(N5CCN(C(=O)C6CC6)CC5)ccnc4[nH]3)c(Cl)c2)CC1 [Compound 456]
≥ 7.00 | ≥ 8.00 | CCN1CC[C@@H](c2ccc(-c3cc4c(N5CCN(C(=O)C6CC6)CC5)ccnc4[nH]3)cc2)C(F)(F)C1 [Compound 458]
≥ 7.00 | ≥ 8.00 | CCN1CCC(c2ccc(-c3cc4c(N5CCN(C(=O)C6CC6)CC5)ccnc4[nH]3)cc2)C(F)(F)C1 (centres unmarked) [Compound 460]
6.30 to 7.00 | ≥ 8.00 | O=C(C1CC1)N1CCN(c2ccnc3[nH]c(-c4ccc(N5CCN(CC(F)F)CC5)cc4)cc23)CC1 [Compound 461]

Second part, the compound before the results:

SMILES | pIC50 [1] | pIC50 [2]
N#Cc1c(-c2nc3c(s2)COCC3)[nH]c2nccc(N3CCN(C(=O)OC4CC4)CC3)c12 [Compound 395] | ≥ 7.00 | ≥ 8.00
CCOC(=O)N1CCN(c2ccnc3[nH]c(-c4ccc(C5(O)CCOCC5)cn4)cc23)CC1 [Compound 396] | ≥ 7.00 | ≥ 8.00
Cn1cc(-c2[nH]c3nccc(N4CCN(C(=O)[C@H]5CC[C@H](C#N)CC5)CC4)c3c2Cl)cn1 [Compound 397] | ≥ 7.00 | ≥ 8.00
Cn1cc(-c2cc3c(N4CCN(C(=O)O[C@@H]5CC(F)(F)C5(F)F)CC4)ccnc3[nH]2)cn1 [Compound 398] | ≥ 7.00 | ≥ 8.00
O=C(OC1COC1)N1CCN(c2ccnc3[nH]c(-c4csc(C(F)(F)F)n4)cc23)CC1 [Compound 408] | 6.30 to 7.00 | ≥ 8.00
Cc1nc(-c2[nH]c3nccc(N4CCN(C(=O)OC5CC(F)(F)C5)CC4)c3c2C#N)cn1C [Compound 412] | ≥ 7.00 | ≥ 8.00
Cc1nc(-c2[nH]c3nccc(N4CCN(C(=O)OC5CCC5(F)F)CC4)c3c2C#N)cn1C (centres unmarked) [Compound 413] | ≥ 7.00 | ≥ 8.00
Cn1cc(-c2[nH]c3nccc(N4CCN(C(=O)OC5CS(=O)(=O)C5)CC4)c3c2C#N)cn1 [Compound 414] | ≥ 7.00 | ≥ 8.00
O=C(O[C@H]1C[C@H](F)C1)N1CCN(c2ccnc3[nH]c(-c4nc5c(s4)COCC5)cc23)CC1 [Compound 416] | ≥ 7.00 | ≥ 8.00
CCN1CCN(c2ccc(-c3cc4c(N5CCN(C(=O)C6CC6)CC5)ccnc4[nH]3)cc2)CC1 [Compound 418] | ≥ 7.00 | ≥ 8.00
O=C(COc1ccc(-c2cc3c(N4CCN(C(=O)C5CC5)CC4)ccnc3[nH]2)cc1)N1CCC1 [Compound 420] | 6.30 to 7.00 | ≥ 8.00
O=C(OC1COC1)N1CCN(c2ccnc3[nH]c(-c4ccc(C5=CCOCC5)cc4)cc23)CC1 [Compound 425] | ≥ 7.00 | ≥ 8.00
O=C(OC1COC1)N1CCN(c2ccnc3[nH]c(-c4ccc([C@@]5(O)CCOC5)cc4)cc23)CC1 [Compound 428] | ≥ 7.00 | ≥ 8.00
O=C(C1CC1)N1CCN(c2ccnc3[nH]c(-c4ccc(C5CCNCC5(F)F)cc4)cc23)CC1 (centres unmarked) [Compound 431] | ≥ 7.00 | ≥ 8.00
Cc1nc(-c2cc3c(N4CCN(C(=O)O[C@H]5CC(F)(F)C5(F)F)CC4)ccnc3[nH]2)cn1C [Compound 432] | ≥ 7.00 | ≥ 8.00
CCOC(=O)N1CCN(c2ccnc3[nH]c(-c4ccc(C5(O)CCOCC5)cc4C#N)cc23)CC1 [Compound 441] | ≥ 7.00 | ≥ 8.00
CCN1CCC(c2ccc(-c3cc4c(N5CCN(C(=O)C6CC6)CC5)ccnc4[nH]3)cc2)C(F)C1 (centres unmarked) [Compound 442] | ≥ 7.00 | ≥ 8.00
CCN1CCN(c2ccc(-c3cc4c(N5CCN(C(=O)C6CC6)CC5)ccnc4[nH]3)c(F)c2)CC1 [Compound 444] | ≥ 7.00 | ≥ 8.00
CC(=O)N1CCc2nc(-c3cc4c(N5CCN(C(=O)OC6COC6)CC5)ccnc4[nH]3)sc2C1 [Compound 447] | ≥ 7.00 | ≥ 8.00
O=C(C1CC1)N1CCN(c2ccnc3[nH]c(-c4ccc(N5CCN6CCOCC6C5)cc4)cc23)CC1 (centres unmarked) [Compound 453] | ≥ 7.00 | ≥ 8.00
CCOC(=O)N1CCN(c2ccnc3[nH]c(-c4ccc(C5(OC)CCOCC5)cc4C#N)cc23)CC1 [Compound 455] | ≥ 7.00 | ≥ 8.00
CCN1CC[C@H](c2ccc(-c3cc4c(N5CCN(C(=O)C6CC6)CC5)ccnc4[nH]3)cc2)C(F)(F)C1 [Compound 459] | ≥ 7.00 | ≥ 8.00
